# Assays:
# Swiss-Webster male mice [1] = test: Mouse Activity and Screen Test Procedure (MAST): screen test (ST); assay type: in vivo; details: one hour postinjection
# Text: The compounds of the invention are new chemical substances which are useful as pharmaceutical agents for the treatment of psychoses. The antipsychotic activity of representative compounds of the invention was established by the Mouse Activity and Screen Test Procedrue (MAST) described below.
# Nine unfasted Swiss-Webster male mice weighing 20-30 g equally divided into three groups for each drug dose to be tested. That is, data for each dose level was generated by three separated groups of three mice each.
# A minimum of three dose levels (10, 30, and 100 mg/kg) are tested for each drug. Treatments are administered intraperitoneally one hour prior to testing. All dosages are calculated as parent compound and given in volumes of 10 ml/kg. Compounds are dissolved or suspended in 0.2% Methocel. Control animals are injected with Methocel.
# Testing: A two part testing procedure is started one hour postinjection. First, the screen test (ST) is performed (see Pharmac. Biochem. Behav. 6, 351-353, 1977). Briefly this test consists of placing mice on individual wire screens which are then rotated 180 degrees at the start of a 60 second observation period. The number of mice falling off the inverted screen is recorded.
# Data: The data obtained from the screen test are expressed as percent of mice falling off the screen. Data derived from locomotor activity of drug treated mice are compared to the activity of vehicle treated animals and are expressed as percent inhibition of spontaneous locomotion. All percentages reported for inhibition of locomotion (LI) are based upon data accumulated for one hour. Both phases of testing are graded: A=60-100%; G=31-59%; and N=0-30%. An overall dose rating is obtained by the following criteria:
# LAD refers to the lowest dose at which an A rating is achieved. […] Utilizing this procedure, an overall dose rating of A was obtained for the noted compound at the indicated dose. The compounds are identified in the Examples.
# adenosine A2 receptor = molecular target: T1, adenosine A2 receptor (Rattus norvegicus, UniProt P30543); test: Adenosine Receptor Binding - A2 Receptor Affinity (RBA2); details: [3H]NECA, rat striatal membranes; read-out: RBA-2
# T1 construct: 5 mg original tissue weight of rat weight of rat striatal membranes; tissue Pel-Freez (Rogers, Arkansas); host or cells: rat striatum, membrane preparation
# Protocol: Adenosine Receptor Binding - A2 Receptor Affinity (RBA2)
# Brains from 200-500 g mixed sex Sprague-Dawley rats were purchased from Pel-Freez (Rogers, Arkansas). […] Brains were thawed and then kept on ice while the striata were dissected out. […] When needed, tissue was thawed at room temperature, disrupted in a Polytron, and kept on ice until used.
# All incubations were for 60 minutes at 25°C in 12x75 mm glass tubes containing 1 ml Tris with 5 mg original tissue weight of rat weight of rat striatal membranes, 4 nM [^3H]-N-ethyl adenosine-5'-carboxamide ([^3H]NECA), 50 nM N^6-cyclopentyladenosine (to eliminate A1 receptor binding), 10 mM MgCl2, 0.1 units/ml of adenosine deaminase and 1% dimethylsulfoxide. N^6-Cyclopentyladenosine was dissolved at 10 mM in 0.02 N HCI and diluted in Tris. […] Test compounds were dissolved at 10 mM in dimethylsulfoxide on the same day as the experiment, and diluted in dimethylsulfoxide to 100x the final incubation concentration. […] [^3H]NECA was diluted to 40 nM in Tris. The membrane suspension (5 mg/0.79 ml) contained sufficient MgC12 and adenosine deaminase to give 10 mM and 0.1 units/ml, respectively, final concentration in the incubation. For test compounds with lC50 values less than 1 µM, the order of additions was test compound (10 µl), N^6-cyclopentyladenosine (100 µl), [^3H]NECA (100 µl), and membranes (0.79 ml). […] After all additions, the rack of tubes was vortexed, and the tubes were then incubated for 60 min at 25°C in a shaking water bath. The rack of tubes was vortexed an additional time halfway through the incubation.
# incubations were terminated by filtration through 2.4 cm GF/B filters under reduced pressure. Each tube was filtered as follows: the contents of the tube were poured onto the filter, 4 ml of ice-cold Tris were added to the tube and the contents poured onto the filter, and the filter was washed twice with 4 ml of ice-cold Tris. The filtration was complete in about twelve seconds.
# Nonspecific binding was defined as binding in the presence of 100 µM N^6-cyclopentyladenosine, and specific binding was defined as total binding minus nonspecific binding. The IC50 was calculated by weighed nonlinear least squares curve-fitting to the mass-action equation. [formula] • where Y is cpm bound • T is cpm total binding without drug • S is cpm specific binding without drug • D is the concentration of drug • and K is the IC50 of the drug Weighting factors were calculated under the assumption that the standard deviation was proportional to the predicted value of Y. Nonspecific binding was treated as a very large (infinite) concentration of drug in the computer analysis.
# Swiss-Webster male mice [2] = test: Mouse Activity and Screen Test Procedure (MAST): locomotor activity in actophotometer; assay type: in vivo; details: one hour prior to testing
# Protocol: Nine unfasted Swiss-Webster male mice weighing 20-30 g equally divided into three groups for each drug dose to be tested. That is, data for each dose level was generated by three separated groups of three mice each. A minimum of three dose levels (10, 30, and 100 mg/kg) are tested for each drug. Treatments are administered intraperitoneally one hour prior to testing. All dosages are calculated as parent compound and given in volumes of 10 ml/kg. […] Control animals are injected with Methocel. […] The actophotometer consists of a cylindrical chamber whose center is occupied by another cylinder which contains the illumination for six photocells located on the perimeter of the chamber. Six light-beam interruptions equal one count. […] Data: The data obtained from the screen test are expressed as percent of mice falling off the screen. Data derived from locomotor activity of drug treated mice are compared to the activity of vehicle treated animals and are expressed as percent inhibition of spontaneous locomotion. All percentages reported for inhibition of locomotion (LI) are based upon data accumulated for one hour. […] An overall dose rating is obtained by the following criteria: LAD refers to the lowest dose at which an A rating is achieved. […] The compounds are identified in the Examples.
# T1 sequence (P30543 whole entry): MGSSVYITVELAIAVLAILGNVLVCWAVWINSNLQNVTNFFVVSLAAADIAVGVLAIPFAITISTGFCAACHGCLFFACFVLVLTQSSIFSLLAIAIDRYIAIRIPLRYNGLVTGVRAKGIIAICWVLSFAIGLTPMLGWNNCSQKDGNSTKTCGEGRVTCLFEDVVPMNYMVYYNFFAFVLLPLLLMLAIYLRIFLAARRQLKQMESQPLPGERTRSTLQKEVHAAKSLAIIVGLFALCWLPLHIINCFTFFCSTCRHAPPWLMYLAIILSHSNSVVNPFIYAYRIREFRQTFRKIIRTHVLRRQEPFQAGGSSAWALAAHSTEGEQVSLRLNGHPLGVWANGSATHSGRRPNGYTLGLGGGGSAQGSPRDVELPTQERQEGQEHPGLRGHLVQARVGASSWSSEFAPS
Screen test failure (Swiss-Webster male mice [1]; 0.03 mg/kg intraperitoneally),Screen test failure (Swiss-Webster male mice [1]; 0.1 mg/kg intraperitoneally),Screen test failure (Swiss-Webster male mice [1]; 0.3 mg/kg intraperitoneally),Screen test failure (Swiss-Webster male mice [1]; 10 mg/kg intraperitoneally),Screen test failure (Swiss-Webster male mice [1]; 30 mg/kg intraperitoneally),Screen test failure (Swiss-Webster male mice [1]; 100 mg/kg intraperitoneally),IC50 (adenosine A2 receptor),Screen test failure (Swiss-Webster male mice [1]; 1 mg/kg intraperitoneally),Screen test failure (Swiss-Webster male mice [1]; 3 mg/kg intraperitoneally),Compound,Inhibition of mouse locomotor activity (Swiss-Webster male mice [2]; 0.03 mg/kg intraperitoneally),Inhibition of mouse locomotor activity (Swiss-Webster male mice [2]; 0.1 mg/kg intraperitoneally),Inhibition of mouse locomotor activity (Swiss-Webster male mice [2]; 0.3 mg/kg intraperitoneally),Inhibition of mouse locomotor activity (Swiss-Webster male mice [2]; 10 mg/kg intraperitoneally),Inhibition of mouse locomotor activity (Swiss-Webster male mice [2]; 30 mg/kg intraperitoneally),Inhibition of mouse locomotor activity (Swiss-Webster male mice [2]; 100 mg/kg intraperitoneally),Inhibition of mouse locomotor activity (Swiss-Webster male mice [2]; 1 mg/kg intraperitoneally),Inhibition of mouse locomotor activity (Swiss-Webster male mice [2]; 3 mg/kg intraperitoneally)
0%,0%,11%,77%,88%,77%,524 nM,–,–,"CC1CCc2ccccc2C1Nc1ncnc2c1ncn2[C@@H]1O[C@H](CO)[C@@H](O)[C@H]1O (stereo partly drawn) [Example 4, N^6-[1-(2-Methyl)-tetralinyl]-adenosine]",3%,1%,70%,97%,99%,99%,–,–
–,–,–,0%,22%,–,57100 nM,0%,0%,"CC(=O)Oc1ccccc1C(=O)OC[C@H]1O[C@@H](n2cnc3c(NC4CCCc5ccccc54)ncnc32)[C@H](O)[C@@H]1O (stereo partly drawn) [Example 14, N^6-(1-tetralinyl)-5'-O-(O-acetylsalicoyl)adenosine]",–,–,–,94%,94%,–,54%,69%
–,–,11%,22%,65%,–,407 nM,11%,11%,"COc1ccc2c(c1)C(Nc1ncnc3c1ncn3[C@@H]1O[C@H](CO)[C@@H](O)[C@H]1O)CCC2 (single isomer, unassigned) [Example 8]",–,–,25%,93%,94%,–,83%,88%
–,–,–,11%,–,–,918 nM,0%,11%,"COc1ccc2c(c1)C(Nc1ncnc3c1ncn3[C@@H]1O[C@H](CO)[C@@H](O)[C@H]1O)CCC2 (single isomer, unassigned) [Example 5, N6-[1-(7-Methoxy)-tetralinyl]-adenosine]",–,–,–,91%,–,–,39%,82%
–,–,–,22%,22%,–,2700 nM,–,0%,"OC[C@H]1O[C@@H](n2cnc3c(NCC4=CCCCc5ccccc54)ncnc32)[C@H](O)[C@@H]1O [Example 26, N^6-(1-benzocycloheptenyl)methyladenosine]",–,–,–,31%,64%,–,–,50%
–,–,–,11%,0%,–,1270 nM,–,0%,"OC[C@H]1O[C@@H](n2cnc3c(NCC4CCCCc5ccccc54)ncnc32)[C@H](O)[C@@H]1O (stereo partly drawn) [Example 28, N^6-(1-benzocycloheptyl)methyladenosine]",–,–,–,19%,59%,–,–,35%
–,–,–,22%,66%,–,987 nM,–,11%,"OC[C@H]1O[C@@H](n2cnc3c(NCC4(O)CCc5ccccc54)ncnc32)[C@H](O)[C@@H]1O (stereo partly drawn) [Example 25, N^6-[2,3-dihydro-1-hydroxy-1H-inden-1-yl]methyladenosine]",–,–,–,89%,88%,–,–,−14%
–,–,0%,22%,11%,–,76.5 nM,0%,22%,"OC[C@H]1O[C@@H](n2cnc3c(NCC4=CCCc5ccccc54)ncnc32)[C@H](O)[C@@H]1O [Example 24, N^6-[3,4-dihydro-1-naphthalenyl]methyladenosine]",–,–,9%,94%,95%,–,34%,67%
–,–,–,22%,22%,99%,476 nM,0%,0%,"OC[C@H]1O[C@@H](n2cnc3c(NC4CCCc5ccccc54)ncnc32)C(O)[C@@H]1O (stereo in doubt) [Example 1, (R,S)-N^6-[1-Tetralinyl]-adenosine]",–,–,–,98%,97%,99%,86%,93%
–,–,–,0%,44%,44%,4370 nM,0%,0%,"COc1ccc2c(c1)CCCC2Nc1ncnc2c1ncn2[C@@H]1O[C@H](CO)[C@@H](O)[C@H]1O (stereo partly drawn) [Example 6, N^6-[1-(6-Methoxy)-tetralinyl]-adenosine]",–,–,–,62%,94%,99%,22%,3%
–,–,11%,44%,66%,–,217 nM,22%,22%,"COc1cccc2c1CCC[C@@H]2Nc1ncnc2c1ncn2[C@@H]1O[C@H](CO)[C@@H](O)[C@H]1O [Example 10, (S)-N^6-[5-methoxy-1-aminotetralin]-adenosine]",–,–,−19%,95%,97%,–,65%,88%
